Consider seven compounds from publication PMC5707448, “Luminescent platinum(II) complexes with self-assembly and anti-cancer properties: hydrogel, pH dependent emission color and sustained-release properties under physiological conditions” (Chemical Science, 2015).

Series [1] has as its system HeLa cells. The experiment in a line: Naphthol blue black (NBB) staining assay, HeLa. Format: cell-based, human. Conditions: 72 h incubation, read-out: Anti-proliferative activities towards HeLa cells (NBB staining assay). On the procedure: MTT assay Cancer cells (cell density = 4000-6000 cells/100µL) were seeded in a 96-well, flat-bottomed microtitre plate in growth medium (100 µL) and incubated at 37 °C under a 5% CO2 atmosphere for 24 h. Different concentrations of complexes were added and the plates were incubated for 72 h. […]
Naphthol blue black (NBB) staining assay After a total incubation time of 72 h, the medium was removed and a mixture of 50 µL of formaldehyde (3% in PBS) and 50 µL of NBB solution (0.05% NBB, 0.1 M sodium acetate, 9% acetic acid) was added. After further 30 min incubation, the mixture was removed and each well was washed with deionized water for 3 times. The plates were air-dried and 100 µL of NaOH (50 mg/mL) was added to solubilize the NBB-stained cells. The plates were […]
shaken for 1 h. […]

For series [2], the system named is HeLa cells. Kind of series: Sustained cytotoxicity in Transwell plates (MTT), HeLa in lower chamber. Format: cell-based, human. Particulars: upper chamber loaded for 1 h, total 72 h. The procedure:
The sustained cytotoxicity of 1a-hydrogel towards HeLa cells was tested in double-chambered Transwell® 24-well plates (Fig. 8a). The plate has a semi-permeable membrane to separate the HeLa cells (lower chamber) from direct contact with hydrogel (upper chamber). After treatment of HeLa cells with 1a-hydrogel (100 μM) at different time intervals, the upper chambers were removed and the HeLa cells were further incubated in the absence of the hydrogel. After a total of 72 h, the cell survival percentage was quantified by MTT assay. […] Therefore, an acidic environment can stimulate a faster release of 1a from 1a-hydrogel resulting in a more rapid cytotoxic effect. As the microenvironment of tumor tissues is often acidic compared to that of normal tissues,[20]1a-hydrogel could potentially achieve selective cytotoxicity towards tumor cells under in vivo conditions. […]
orifice, stored in pre-cooled Hank’s Balanced Solution (HBSS), and then cut with small scissor into about 2-3 mm3. The specimens were then digested with 0.5% collagenase IV at 37 °C for 15 min, filtered through sterile 100 mesh filter screen. […]
(§1) MTT assay Cancer cells (cell density = 4000-6000 cells/100µL) were seeded in a 96-well, flat-bottomed microtitre plate in growth medium (100 µL) and incubated at 37 °C under a 5% CO2 atmosphere for 24 h. […] After further in dark at 37 °C overnight, the percentage of survival cells were determined with a microtitre plate reader at 590 nm.
Naphthol blue black (NBB) staining assay After a total incubation time of 72 h, the medium was removed and a mixture of 50 µL of formaldehyde (3% in PBS) and 50 µL of NBB solution (0.05% NBB, 0.1 M sodium acetate, 9% acetic acid) was added. […] The percentage of survival cells was determined with a microtitre plate […]
and 72 h). […] After further in dark at 37 °C overnight, the percentage of survival cells were determined with a microtitre plate reader at 590 nm. […]

For series [3], the system named is HeLa. Kind of series: MTT cytotoxicity assay, HeLa. Format: cell-based, human. Particulars: 72 h treatment. On the procedure: (§2) We then tested whether accumulation of platinum(II) complexes in lysosomes was associated with an increase in lysosomal membrane permeability (LMP). […] The cells were then treated with 1a or 2 at different concentrations.[17] […] Induction of LMP is a known cell death mechanism.[19] Therefore, we examined the cytotoxicity of the platinum(II) complexes towards different cancer cells by means of MTT (3-(4,5-dimethyl-2-thiazolyl)-2,5-diphenyltetrazolium bromide) (Table 1) and naphthol blue black (NBB) staining (Table S4 ^†) assays. […]
(§3) MTT assay Cancer cells (cell density = 4000-6000 cells/100µL) were seeded in a 96-well, flat-bottomed microtitre plate in growth medium (100 µL) and incubated at 37 °C under a 5% CO2 atmosphere for 24 h. Different concentrations of complexes were added and the plates were incubated for 72 h. After a total incubation time of 72 h, MTT in PBS solution (5 mg/mL, 10 µL) was added to each well. The plates were incubated at 37 °C under a 5% CO2 atmosphere for another 4 h, followed by adding 100 µL of sodium dodecyl sulfate (SDS, 10%) in diluted hydrochloric acid to each well. After further in dark at 37 °C overnight, the percentage of survival cells were determined with a microtitre plate reader at 590 nm. […]
Background: Tetrazolium assays rely on reduction of a dye to a coloured formazan, in cell work by metabolically active cells.

In series [4] the test system is breast cancer (MDA). The experiment in a line: MTT cytotoxicity assay, MDA. In kind it is cell-based. Particulars: 72 h treatment. On the procedure:
as §2, §3

The subject of series [5] is non-tumorigenic immortalized liver cells (MIHA). The experiment in a line: MTT cytotoxicity assay, MIHA. Format: cell-based. Conditions: 72 h treatment. The procedure: as §2, §3
Series [6] relates to HeLa cells. Kind of series: Lysosomal membrane permeability by acridine orange staining. Format: cell-based, human. Particulars: 5 or 10 μM, 30 min, 37 °C.
The subject of series [7] is primary bladder cancer cells. The experiment in a line: MTT assay on primary bladder cancer cells. In kind it is cell-based, human. Conditions: 72 h incubation, read-out: Cytotoxic IC50, primary bladder cancer cells. The procedure:
orifice, stored in pre-cooled Hank’s Balanced Solution (HBSS), and then cut with small scissor into about 2-3 mm3. The specimens were then digested with 0.5% collagenase IV at 37 °C for 15 min, filtered through sterile 100 mesh filter screen. The cells were collected by centrifugation at 700 g for 5 min, and then re-suspended in DMEM culture medium supplemented with penicillin (100 units/ml), streptomycin (100 μg/ml) and fungazone (0.25 μg/ml) at 37 °C in 95% air, 5% CO2, and cultured in […]
The medium was replaced continuously every day. The interstitial cells were removed from the primary bladder cancer cells by trypsinization with 10-times diluted enzyme. The cells were used for drug screening when the confluence reached about 70%-80%. […]
as §1
Naphthol blue black (NBB) staining assay After a total incubation time of 72 h, the medium was removed and a mixture of 50 µL of formaldehyde (3% in PBS) and 50 µL of NBB solution (0.05% NBB, 0.1 M sodium acetate, 9% acetic acid) was added. […] The percentage of survival cells was determined with a microtitre plate

Series [8] deals with ovarian carcinoma (A2780). Kind of series: MTT cytotoxicity assay, A2780. Conditions: 72 h treatment. Format: cell-based. The procedure:
as §2, §3

Series [9] deals with hepatocellular carcinoma cells (HepG2). The experiment in a line: MTT cytotoxicity assay, HepG2. Conditions: 72 h treatment. In kind it is cell-based. On the procedure:
as §2, §3

In series [10] the test system is HeLa cells. The experiment in a line: Soft agar colony formation assay. Conditions: 2 μM, 7 day. Format: cell-based, human. The procedure:
HeLa cells (0.07 × 106) were seeded with 600 µL cultured medium in the lower chambers of the double-decked Transwell® 24-well plates and incubated at 37 °C under a 5% CO2 atmosphere for 24 h. A uniform scratch was introduced on each well using a […] and the images of the scratches were recorded (0 h).
Berberine@1a-hydrogel and 1a-hydrogel in 100 µL medium was separately introduced to the upper chamber. The upper chambers were detached from the lower chamber after 4 h or 8 h incubation time. The images of the scratches were captured after 24 h incubation time.
Soft agar colony formation assay
HeLa cells (1.5 × 105) were mixed with solvent control or 1a (2 µM) in 2 mL medium with 0.35% soft agar per well in a 6-well plate coated with medium with 0.7% soft agar. 1 mL medium containing solvent control or 1a (2 µM) was added to the soft agar after the soft agar was solidified. The imaging was captured after incubating the plate at 37 °C under a 5% CO2 atmosphere for 7 day.

Series [11] deals with nasopharyngeal carcinoma (SUNE1). The experiment in a line: MTT cytotoxicity assay, SUNE1. In kind it is cell-based. Particulars: 72 h treatment. On the procedure:
as §2, §3

Series [12] deals with B16 melanoma. The experiment in a line: MTT cytotoxicity assay, B16. Format: cell-based. Conditions: 72 h treatment. On the procedure:
as §2, §3

Setting [13] is: pH 7.4, 1a-hydrogel and cisplatin 100 μM.

As to `N.N.[Cl][Pt][Cl]` [Cisplatin], the IC50 in series [1] was determined as 4.29 ± 0.36 µM. Besides, the Cell survival in [2] (pH 6.0, 100 μM) is roughly 20%; in [2] (setting [13]), roughly 20%.

With `Cc1cccc(C)c1[N+]#[C][Pt-2]12[c]3ccccc3-c3cccc([n+]31)-c1cc[nH][n+]12.[Cl-]` (centres unmarked) [Complex 1a, [Pt(C^N^N^pyr)(C?NR^1)]Cl], the IC50 turned out to be 4.4 ± 0.6 µM in series [3]; 1.6 ± 0.4 µM in series [4]; 1.05 ± 0.06 µM in [1]; 6.36 ± 0.15 µM in series [5]; 6.9 µM in series [7]; 1.2 ± 0.1 µM in series [8]. The IC50 in series [9] was 1.3 ± 0.1 µM; in series [11], 3.5 ± 0.8 µM; in series [12], 0.66 ± 0.04 µM. Besides, the “Lysosomal membrane permeability (red fluorescence of acridine orange)” value in [6] was “dose-dependent reductions of red fluorescence”. In addition, the Cell survival in series [2] (setting [13]) was roughly 15%. For the same compound, the Anchorage-independent colony formation entry in series [10] was “inhibited anchorage-independent colony formation”.

Take `Cc1cccc(C)c1[N+]#[C][Pt-2]12[c]3ccccc3-c3cccc([n+]31)-c1cc[nH][n+]12.O=S(=O)(O)C(F)(F)F` (centres unmarked) [Complex 1b]: the IC50 in [3] amounted to 2.8 ± 0.2 µM; in series [4], 2.1 ± 0.5 µM; in [1] it was 0.9 ± 0.17 µM; in series [5], 5.23 ± 0.62 µM; in series [8] it was 1.2 ± 0.1 µM; in series [9] it was 1.7 ± 0.4 µM. The IC50 in series [11] is 2.8 ± 0.6 µM; in [12], 0.42 ± 0.02 µM.

In the case of `CCCC[N+]#[C][Pt-2]12[c]3ccccc3-c3cccc([n+]31)-c1cc[nH][n+]12.[Cl-]` (centres unmarked) [Complex 2], the IC50 in series [3] was determined as 5.1 ± 1.1 µM; in series [4] it was 5 ± 0.2 µM; in series [1], 2.28 ± 0.18 µM; in [5], 8.12 ± 1.27 µM; in series [8], 3.3 ± 0.2 µM; in series [9], 4 ± 0.8 µM. For the same compound, the IC50 in [11] amounted to 4.4 ± 1 µM; in series [12], 0.85 ± 0.07 µM. Moreover, the “Lysosomal membrane permeability (red fluorescence of acridine orange)” value in [6] is reported as “dose-dependent reductions of red fluorescence”.

For `COc1ccc([N+]#[C][Pt-2]23[c]4ccccc4-c4cccc([n+]42)-c2cc[nH][n+]23)cc1.O=S(=O)(O)C(F)(F)F` (centres unmarked) [Complex 3], the IC50 was 3.8 ± 0.5 µM in series [3]; 4.2 ± 1 µM in series [4]; 1.98 ± 0.21 µM in series [1]; 9.56 ± 2.15 µM in series [5]; 2.7 ± 0.1 µM in series [8]; 2.7 ± 0.2 µM in series [9]. Moreover, the IC50 in series [11] stood at 3.9 ± 0.7 µM; in [12] it was 2.6 ± 0.2 µM.

For `O=S(=O)(O)C(F)(F)F.[C](#[N+]c1ccc2ccccc2c1)[Pt-2]12[c]3ccccc3-c3cccc([n+]31)-c1cc[nH][n+]12` (centres unmarked) [Complex 4], the IC50 is 8.3 ± 0.9 µM in [3]; 7.4 ± 0.5 µM in series [4]; 3.52 ± 0.89 µM in series [1]; 13.5 ± 2.12 µM in series [5]; 5 ± 0.2 µM in series [8]; 6.2 ± 0.6 µM in series [9]. The figures for the IC50 in series [11] and in [12] were 7.9 ± 1.3 µM and 3 ± 0.3 µM, respectively.

Regarding `COCCOCCOc1ccc([N+]#[C][Pt-2]23[c]4ccccc4-c4cccc([n+]42)-c2cc[nH][n+]23)cc1.O=S(=O)(O)C(F)(F)F` (centres unmarked) [Complex 5], the IC50 is 14.4 ± 3.5 µM in [3]; 8.3 ± 1.6 µM in series [4]; 9.47 ± 1.92 µM in series [1]; 20.2 ± 2.92 µM in [5]; 11.7 ± 2.1 µM in series [8]; 9 ± 1.6 µM in series [9]. The IC50 in series [11] is 12.3 ± 4.2 µM; in [12] it was 6.2 ± 0.5 µM.
